# Assay results as given in US20230278972A1, “SUBSTITUTED HALOALKYL SULFONANILIDE HERBICIDES” (FMC Corporation, priority 2020, published 2023).
# Tests used:
# Type in all cases: in vivo
# [1] = tested on: barnyardgrass (Echinochloa crus-galli); assay: Test A preemergence, barnyardgrass; details: Preemergence; for Plant response rating, Barnyardgrass: 0 to 100 scale (0 no effect, 100 complete control)
# Method in brief: (§1)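 Test chemicals, formulated in a non-phytotoxic solvent mixture with surfactant, were sprayed postemergence on plants 2 to 10 cm tall at the one- to two-leaf stage. Preemergence treatment was a directed soil spray onto freshly seeded pots. Both used a loam soil and sand blend.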
# [2] = tested on: kochia (Bassia scoparia); assay: Test A preemergence, kochia; details: Preemergence; for Kochia plant response rating: visual injury on 0 to 100 scale (0 no effect, 100 complete control), approximately 10 days; for Plant response rating, Kochia: 0 to 100 scale (0 no effect, 100 complete control)
# Method in brief: as §1
# [3] = tested on: ragweed (common ragweed, Ambrosia artemisiifolia); assay: Test A preemergence, ragweed; details: Preemergence; for Ragweed plant response rating: visual injury on 0 to 100 scale (0 no effect, 100 complete control), approximately 10 days; for Plant response rating, Ragweed: 0 to 100 scale (0 no effect, 100 complete control)
# Method in brief: as §1
# [4] = tested on: Ryegrass, Italian (Italian ryegrass, Lolium multiflorum); assay: Test A preemergence, Ryegrass, Italian; details: Preemergence; for Ryegrass, Italian plant response rating: visual injury on 0 to 100 scale (0 no effect, 100 complete control), approximately 10 days; for Plant response rating, Ryegrass, Italian: 0 to 100 scale (0 no effect, 100 complete control)
# Method in brief: as §1
# [5] = tested on: Foxtail, Giant (giant foxtail, Setaria faberi); assay: Test A preemergence, Foxtail, Giant; details: Preemergence; for Foxtail, Giant plant response rating: visual injury on 0 to 100 scale (0 no effect, 100 complete control), approximately 10 days; for Plant response rating, Foxtail, Giant: 0 to 100 scale (0 no effect, 100 complete control)
# Method in brief: as §1
# [6] = tested on: pigweed (Amaranthus retroflexus); assay: Test A preemergence, pigweed; details: for Pigweed plant response rating: visual injury on 0 to 100 scale (0 no effect, 100 complete control), approximately 10 days; for Plant response rating, Pigweed: 0 to 100 scale (0 no effect, 100 complete control)
# Method in brief: (§2)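 Postemergence ratings come from foliar sprays onto one- to two-leaf plants of 2 to 10 cm grown in loam/sand; preemergence ratings come from a directed spray onto the soil of newly seeded pots. Formulation was a surfactant-containing non-phytotoxic solvent blend.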
# [7] = tested on: barnyardgrass (Echinochloa crus-galli); assay: Test A postemergence, barnyardgrass; details: Postemergence, 0 to 100 scale (0 no effect, 100 complete control)
# Method in brief: as §2
# [8] = tested on: kochia (Bassia scoparia); assay: Test A postemergence, kochia; details: Postemergence, 0 to 100 scale (0 no effect, 100 complete control)
# Method in brief: as §1
# [9] = tested on: ragweed (common ragweed, Ambrosia artemisiifolia); assay: Test A postemergence, ragweed; details: Postemergence, 0 to 100 scale (0 no effect, 100 complete control)
# Method in brief: as §1
# [10] = tested on: Ryegrass, Italian (Italian ryegrass, Lolium multiflorum); assay: Test A postemergence, Ryegrass, Italian; details: Postemergence, 0 to 100 scale (0 no effect, 100 complete control)
# Method in brief: as §1
# [11] = tested on: Foxtail, Giant (giant foxtail, Setaria faberi); assay: Test A postemergence, Foxtail, Giant; details: Postemergence, 0 to 100 scale (0 no effect, 100 complete control)
# Method in brief: as §1
# [12] = tested on: pigweed (Amaranthus retroflexus); assay: Test A postemergence, pigweed; details: Postemergence, 0 to 100 scale (0 no effect, 100 complete control)
# Method in brief: as §1
# [13] = tested on: wheat (Triticum aestivum); assay: Test A postemergence, wheat; details: Postemergence, 0 to 100 scale (0 no effect, 100 complete control)
# Method in brief: as §2
# [14] = tested on: corn (Zea mays); assay: Test A postemergence, corn; details: Postemergence, 0 to 100 scale (0 no effect, 100 complete control)
# Method in brief: as §1
# [15] = tested on: blackgrass (Alopecurus myosuroides); assay: Test A postemergence, blackgrass; details: Postemergence, 0 to 100 scale (0 no effect, 100 complete control)
# Method in brief: as §1
# [16] = tested on: galium (catchweed bedstraw, Galium aparine); assay: Test A postemergence, galium; details: Postemergence, 0 to 100 scale (0 no effect, 100 complete control)
# Method in brief: as §2
# [17] = 125 g ai/ha, visual injury approx. 10 days
# [18] = 500 g ai/ha, visual injury, approx. 10 days
# [19] = 125 g ai/ha, visual injury, approx. 10 days
# [20] = 500 g ai/ha, visual injury vs untreated controls after approx. 10 days
smiles,measurement,setting,value
Cc1cc(C)c(N(S(C)(=O)=O)S(=O)(=O)C(F)(F)F)cc1-c1cc(C(C)C)nn(C)c1=O [Compound 39],Barnyardgrass plant response rating,"[1]; 125 g ai/ha, visual injury on 0 to 100 scale (0 no effect, 100 complete control), approximately 10 days",40
same,"Plant response rating, Barnyardgrass",[1]; 500 g ai/ha,90
same,Kochia plant response rating,[2]; 125 g ai/ha,0
same,"Plant response rating, Kochia",[2]; 500 g ai/ha,0
same,Ragweed plant response rating,[3]; 125 g ai/ha,0
same,"Plant response rating, Ragweed",[3]; 500 g ai/ha,30
same,"Ryegrass, Italian plant response rating",[4]; 125 g ai/ha,30
same,"Plant response rating, Ryegrass, Italian",[4]; 500 g ai/ha,70
same,"Foxtail, Giant plant response rating",[5]; 125 g ai/ha,10
same,"Plant response rating, Foxtail, Giant",[5]; 500 g ai/ha,90
same,Pigweed plant response rating,[6]; 125 g ai/ha,0
same,"Plant response rating, Pigweed",[6]; 500 g ai/ha,0
same,"Plant response rating, Barnyardgrass",[7]; [17],0
same,"Plant response rating, Barnyardgrass",[7]; [18],30
same,"Plant response rating, Kochia",[8]; [17],0
same,"Plant response rating, Kochia",[8]; [18],0
same,"Plant response rating, Ragweed",[9]; [17],20
same,"Plant response rating, Ragweed",[9]; [18],70
same,"Plant response rating, Ryegrass, Italian",[10]; [17],0
same,"Plant response rating, Ryegrass, Italian",[10]; [18],40
same,"Plant response rating, Foxtail, Giant",[11]; [17],0
same,"Plant response rating, Foxtail, Giant",[11]; [18],0
same,"Plant response rating, Pigweed",[12]; [17],0
same,"Plant response rating, Pigweed",[12]; [18],0
same,"Plant response rating, Wheat",[13]; [17],60
same,"Plant response rating, Wheat",[13]; [18],60
same,"Plant response rating, Corn",[14]; [17],0
same,"Plant response rating, Corn",[14]; [18],0
same,"Plant response rating, Blackgrass",[15]; [17],0
same,"Plant response rating, Blackgrass",[15]; [18],0
same,"Plant response rating, Galium",[16]; [17],0
same,"Plant response rating, Galium",[16]; [18],0
Cc1cc(C)c(C(=O)N2CCC(S(C)(=O)=O)CC2)cc1NS(=O)(=O)C(F)(F)F [Compound 233],"Plant response rating, Barnyardgrass",[1]; [19],0
same,"Plant response rating, Barnyardgrass",[1]; 500 g ai/ha,30
same,"Plant response rating, Kochia",[2]; [19],0
same,Kochia plant response rating,[2]; 500 g ai/ha,80
same,"Plant response rating, Ragweed",[3]; [19],0
same,Ragweed plant response rating,[3]; 500 g ai/ha,30
same,"Plant response rating, Ryegrass, Italian",[4]; [19],20
same,"Ryegrass, Italian plant response rating",[4]; 500 g ai/ha,70
same,"Plant response rating, Foxtail, Giant",[5]; [19],40
same,"Foxtail, Giant plant response rating",[5]; 500 g ai/ha,100
same,"Plant response rating, Pigweed",[6]; [19],60
same,Pigweed plant response rating,[6]; 500 g ai/ha,90
same,"Plant response rating, Barnyardgrass",[7]; 125 g ai/ha,0
same,Barnyardgrass plant response rating,[7]; [20],0
same,"Plant response rating, Kochia",[8]; 125 g ai/ha,0
same,Kochia plant response rating,[8]; [20],30
same,"Plant response rating, Ragweed",[9]; 125 g ai/ha,0
same,Ragweed plant response rating,[9]; [20],0
same,"Plant response rating, Ryegrass, Italian",[10]; 125 g ai/ha,0
same,"Ryegrass, Italian plant response rating",[10]; [20],0
same,"Plant response rating, Foxtail, Giant",[11]; 125 g ai/ha,0
same,"Foxtail, Giant plant response rating",[11]; [20],0
same,"Plant response rating, Pigweed",[12]; 125 g ai/ha,30
same,Pigweed plant response rating,[12]; [20],60
same,"Plant response rating, Wheat",[13]; 125 g ai/ha,0
same,Wheat plant response rating,[13]; [20],40
same,"Plant response rating, Corn",[14]; 125 g ai/ha,0
same,Corn plant response rating,[14]; [20],0
same,"Plant response rating, Blackgrass",[15]; 125 g ai/ha,0
same,Blackgrass plant response rating,[15]; [20],40
same,"Plant response rating, Galium",[16]; 125 g ai/ha,80
same,Galium plant response rating,[16]; [20],90
